Data taken from US8012748B2, “Peripheral nervous system specific sodium channel nucleic acids” (The Research Foundation of State University of New York, priority 1994, dated 2011).

Columns and labels:
DRG sodium channel = details: cited from earlier work
[1] = biological target: T1, PNS SCP (PN1 sodium channel) in PK1-4 cells (Rattus norvegicus, UniProt O08562); test: (14C) guanidinium flux assay in cells expressing a PNS SCP; format: cell-based
T1 construct: PKI-4 cells express a PNS SCP(PN1) without NGF treatment; endogenous in cells
T1 sequence (O08562 whole entry): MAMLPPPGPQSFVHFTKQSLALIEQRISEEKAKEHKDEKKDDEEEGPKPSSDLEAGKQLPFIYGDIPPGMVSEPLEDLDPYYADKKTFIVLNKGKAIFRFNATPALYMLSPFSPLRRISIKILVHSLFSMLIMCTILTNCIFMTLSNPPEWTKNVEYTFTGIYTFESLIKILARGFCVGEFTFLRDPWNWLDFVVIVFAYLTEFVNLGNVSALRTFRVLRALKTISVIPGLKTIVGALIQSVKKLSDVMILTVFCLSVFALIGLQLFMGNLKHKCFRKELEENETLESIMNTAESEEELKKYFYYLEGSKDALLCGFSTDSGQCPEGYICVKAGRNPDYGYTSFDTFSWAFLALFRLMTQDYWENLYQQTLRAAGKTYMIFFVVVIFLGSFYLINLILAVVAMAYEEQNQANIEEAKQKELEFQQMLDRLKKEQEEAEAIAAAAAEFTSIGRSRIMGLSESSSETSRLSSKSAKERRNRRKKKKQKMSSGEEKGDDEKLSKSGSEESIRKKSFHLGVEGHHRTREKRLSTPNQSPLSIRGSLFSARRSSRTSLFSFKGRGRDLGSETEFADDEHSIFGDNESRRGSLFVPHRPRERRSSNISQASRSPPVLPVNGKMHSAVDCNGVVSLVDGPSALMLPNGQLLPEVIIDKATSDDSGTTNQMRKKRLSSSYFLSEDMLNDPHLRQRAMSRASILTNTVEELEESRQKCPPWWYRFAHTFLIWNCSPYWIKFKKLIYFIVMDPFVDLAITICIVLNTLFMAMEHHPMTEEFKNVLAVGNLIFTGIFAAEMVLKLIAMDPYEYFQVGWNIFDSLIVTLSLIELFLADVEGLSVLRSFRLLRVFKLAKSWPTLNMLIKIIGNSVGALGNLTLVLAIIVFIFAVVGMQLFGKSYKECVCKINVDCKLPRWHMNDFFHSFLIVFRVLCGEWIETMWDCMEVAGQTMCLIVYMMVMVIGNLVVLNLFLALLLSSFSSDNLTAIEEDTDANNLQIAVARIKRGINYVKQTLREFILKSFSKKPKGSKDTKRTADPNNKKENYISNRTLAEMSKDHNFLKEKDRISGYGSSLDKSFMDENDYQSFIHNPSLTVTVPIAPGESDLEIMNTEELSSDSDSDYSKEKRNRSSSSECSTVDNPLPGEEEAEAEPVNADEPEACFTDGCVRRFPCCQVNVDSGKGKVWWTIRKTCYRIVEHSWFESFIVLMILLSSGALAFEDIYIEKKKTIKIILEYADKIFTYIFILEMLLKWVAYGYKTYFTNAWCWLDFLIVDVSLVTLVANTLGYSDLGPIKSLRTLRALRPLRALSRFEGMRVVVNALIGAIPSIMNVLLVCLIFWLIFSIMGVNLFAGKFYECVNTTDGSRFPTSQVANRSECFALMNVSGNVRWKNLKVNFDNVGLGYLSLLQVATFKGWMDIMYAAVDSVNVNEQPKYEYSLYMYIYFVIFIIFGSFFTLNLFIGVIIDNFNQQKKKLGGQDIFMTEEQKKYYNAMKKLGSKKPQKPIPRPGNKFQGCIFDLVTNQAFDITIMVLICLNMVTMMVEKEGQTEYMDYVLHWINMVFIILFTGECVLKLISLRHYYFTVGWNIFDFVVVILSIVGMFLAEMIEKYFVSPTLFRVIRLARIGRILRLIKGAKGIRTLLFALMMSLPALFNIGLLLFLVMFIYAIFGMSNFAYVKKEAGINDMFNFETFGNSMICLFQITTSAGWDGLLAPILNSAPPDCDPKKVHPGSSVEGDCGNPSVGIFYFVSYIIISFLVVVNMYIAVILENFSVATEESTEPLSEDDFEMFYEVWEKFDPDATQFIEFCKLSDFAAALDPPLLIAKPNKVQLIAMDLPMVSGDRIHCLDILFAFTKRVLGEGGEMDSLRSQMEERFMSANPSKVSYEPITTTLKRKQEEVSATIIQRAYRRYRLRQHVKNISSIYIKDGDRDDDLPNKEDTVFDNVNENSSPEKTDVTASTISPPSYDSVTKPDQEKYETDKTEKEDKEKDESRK

Row | SMILES | kD for TTX of the DRG channel relative to the kD of sodium channels in skeletal muscle or heart (DRG sodium channel) | inhibition of sodium channel activity of at least one PNS SCP ([1]; cell lines expressing at least one PNS SCP (PC12, PK1-4 and other isolated or recombinant cells)) | IC50 ([1]; guanidinium flux assay, PK1-4 cells, read-out: for inhibition of sodium channel activity (converted)) [nM]
1 | NC1=N[C@H](O)[C@H]2[C@H]3O[C@]4(O)O[C@@H]([C@@H](O)[C@@]2(N1)[C@@H]4O)[C@]3(O)CO [TTX, tetrodotoxin] | approximately tenfold higher |  | 
2 | Cc1cccc(C)c1NC(=O)CN1CCN(CCCC(c2ccc(F)cc2)c2ccc(F)cc2)CC1 [lidoflazine] |  | found to inhibit sodium channel activity | 309
